Values joined by “and” are separate entries in the source; they are usually repeats but may differ in a detail not shown here. Identical values can stand only once.

By Papp A→B is commonly meant the apparent permeability from the apical to the basolateral side of a cell layer. As a reminder, the Papp B→A is how fast a substance crosses the layer from the basolateral side.

One data set concerns the target T1, human MRP2 (Homo sapiens, UniProt Q92887).
T1 construct: purchased GenoMembrane (Kanagawa, Japan); host or cells: Sf9
In words: Vesicular transport assay, Sf9 membrane vesicles expressing human MRP2. It counts as in vitro ADME. Conditions: 1 μM, MgATP vs MgAMP. As to the method:
(§1) The vesicular transport assay was implemented as described in the GenoMembrane™ vesicular transport kit protocol (GenoMembrane, Kanagawa, Japan) with minor changes. Briefly, vesicle stocks were thawed and diluted with assay buffer (50 mM MOPS-Tris, 70 mM KCl, and 7.5 mM MgCl2). […] MgAMP instead of MgATP was used as a control. Apart from these, 4 mM glutathione was also included in BCRP and MRP2 assays. Transport was terminated with ice cold assay buffer, and then samples were quickly transferred to a filter plate. Wells were immediately washed 5 times with 200 μL assay buffer and dried. The vesicles on the plate were dissolved in 50 μL of 80% methanol and centrifuged at 2,000 rpm for 2 min after collection, and repeating the above procedures. Mixed the two filtrates together and added the pre-cooled methanol. After centrifugation at 12,000 rpm for 5 min at 4°C, a 5 μL aliquot of supernatant was injected into the UPLC-ESI-MS/MS system for analysis. Furthermore, the uptake of NMQ (MDR1), LY (BCRP), and E217βG (MRP2) was used to evaluate the activity of specific vesicles.

Another data set has as its target T2, human BCRP (Homo sapiens, UniProt Q9UNQ0).
T2 construct: purchased GenoMembrane (Kanagawa, Japan); host or cells: Sf9
T2 sequence (Q9UNQ0 1-655): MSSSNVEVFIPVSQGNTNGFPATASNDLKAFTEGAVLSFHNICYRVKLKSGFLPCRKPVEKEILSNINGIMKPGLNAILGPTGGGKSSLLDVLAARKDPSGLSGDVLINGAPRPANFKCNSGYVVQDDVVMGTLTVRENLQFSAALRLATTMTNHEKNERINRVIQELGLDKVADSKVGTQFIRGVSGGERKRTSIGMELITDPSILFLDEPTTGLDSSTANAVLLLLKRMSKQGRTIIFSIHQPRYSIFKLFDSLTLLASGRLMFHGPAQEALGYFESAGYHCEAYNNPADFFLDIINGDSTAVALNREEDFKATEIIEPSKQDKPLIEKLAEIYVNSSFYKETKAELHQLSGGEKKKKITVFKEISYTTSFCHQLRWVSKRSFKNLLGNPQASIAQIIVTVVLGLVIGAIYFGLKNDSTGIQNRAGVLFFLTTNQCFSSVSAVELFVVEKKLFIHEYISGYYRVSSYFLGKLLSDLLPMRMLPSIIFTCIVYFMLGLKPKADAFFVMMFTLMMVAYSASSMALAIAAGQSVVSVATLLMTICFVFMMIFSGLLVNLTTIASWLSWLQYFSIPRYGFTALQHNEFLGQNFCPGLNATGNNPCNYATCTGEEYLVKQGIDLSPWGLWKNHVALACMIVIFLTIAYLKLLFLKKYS
Description: Vesicular transport assay, Sf9 membrane vesicles expressing human BCRP. Format: in vitro ADME. Conditions: 1 μM, MgATP vs MgAMP. As to the method: as §1

On the set-up of data set [1]: method as in Wu et al., 2009. The conditions noted are these: wild-type and CYP2D6-humanized mice, intraperitoneal injection, 5 or 15 mg/kg; ref Wu et al., 2009; cited from earlier work.
The test system of another data set is PEPT1. In words: Bidirectional transport in MDCK cell monolayers with selective transporter inhibitors or substrates. It counts as in vitro ADME, canine. The conditions noted are these: dog, with Gly-Sar 10 mM, + Gly-Sar 10 mM (PEPT1). As to the method: (§2) Caco-2, MDCK and MDCK-MRP2 cells were donated by Prof. Yan Xie and Yueming Ma from Shanghai University of Traditional Chinese Medicine. The cells were grown in culture dishes (Corning® Costar, Cambridge, MA, USA) using DMEM supplemented with 10% FBS, 1% NEAA and 1% penicillin-streptomycin solution. The cells were cultured in 5% CO2 and […] with 90% relative humidity at 37°C. The medium was replaced every other day during incubation. The cells were passaged every 3–4 days between 70 and 80% confluence at a 1:5 split ratio using 0.25% trypsin-EDTA. For the transport experiments, the cells from passages between 30 and 45 were seeded at 1 × 10^5 cells/cm^2 onto permeable polycarbonate inserts (0.45 μm pore size, seeding surface of 0.6 cm^2, Millipore, MA, USA) in 24-well plastic plates. The media in the culture plates were changed every other day for the first week after seeding and were replaced daily afterward. […] The cells were used for the transport experiments 21–28 (Caco-2) or 5–7 (MDCK and MDCK-MRP2) days after seeding, and only monolayers with a TEER-value above 420 Ω cm^2 were used during the studies.
(§3) The apical (AP) and basolateral (BL) sides are typical of polarized Caco-2, MDCK and MDCK-MRP2 epithelial cells. Before the experiments, the polarized cell monolayers were washed twice with warm HBSS solution and subsequently preincubated (37°C, 30 min). Afterward, HBSS solution on both sides of the cell monolayers was removed using a mini desktop vacuum pump. […] The final DMSO concentration in the HBSS or drug mixture was below 0.5%. The monolayers were incubated at 37°C, and 100 μL samples were taken at 30, 60, 90, and 120 min from the acceptor compartment and immediately replaced with the same volume of prewarmed fresh blank HBSS. TEER measurements for assessing the membrane integrity took place before and after the experiments.
(§4) The apparent permeability coefficients (Papp) and ER were calculated as Equations (2) and (3): […]
(§5) where dQ/dt is the steady-state flux, A is the membrane surface area, and C0 is the initial drug concentration in the donor compartment. PappBA is the Papp-value measured in BL to AP direction and PappAB is the Papp-value measured in AP to BL direction. It indicated the involvement of an active transport process when the ER-value is above 1.5 (Hubatsch et al., [2007]).

Another data set relates to SGLT1. In words: in vitro. The conditions noted are these: human, Caco-2, ER, Caco-2, 2 μM, + Phloridzin 0.5 mM (SGLT1). As to the method:
as §2, §3, §4, §5

For a further data set, the system named is OCTs/OCTNs. In words: in vitro. The conditions noted are these: human, Caco-2, ER, Caco-2, 2 μM, + TEA 5 mM (OCTs/OCTNs). As to the method: as §2, §3, §4, §5
A further data set concerns MCTs. In words: in vitro. The conditions noted are these: human, Caco-2, ER, Caco-2, 2 μM, + Phloretin 0.3 mM (MCTs). As to the method:
as §2, §3, §4, §5

Another data set concerns Caco-2 cell monolayers. Conditions: Caco-2 monolayers, 250–500 μM; ref Khan et al., 2004; cited from earlier work.

T1 sequence (Q92887 whole entry): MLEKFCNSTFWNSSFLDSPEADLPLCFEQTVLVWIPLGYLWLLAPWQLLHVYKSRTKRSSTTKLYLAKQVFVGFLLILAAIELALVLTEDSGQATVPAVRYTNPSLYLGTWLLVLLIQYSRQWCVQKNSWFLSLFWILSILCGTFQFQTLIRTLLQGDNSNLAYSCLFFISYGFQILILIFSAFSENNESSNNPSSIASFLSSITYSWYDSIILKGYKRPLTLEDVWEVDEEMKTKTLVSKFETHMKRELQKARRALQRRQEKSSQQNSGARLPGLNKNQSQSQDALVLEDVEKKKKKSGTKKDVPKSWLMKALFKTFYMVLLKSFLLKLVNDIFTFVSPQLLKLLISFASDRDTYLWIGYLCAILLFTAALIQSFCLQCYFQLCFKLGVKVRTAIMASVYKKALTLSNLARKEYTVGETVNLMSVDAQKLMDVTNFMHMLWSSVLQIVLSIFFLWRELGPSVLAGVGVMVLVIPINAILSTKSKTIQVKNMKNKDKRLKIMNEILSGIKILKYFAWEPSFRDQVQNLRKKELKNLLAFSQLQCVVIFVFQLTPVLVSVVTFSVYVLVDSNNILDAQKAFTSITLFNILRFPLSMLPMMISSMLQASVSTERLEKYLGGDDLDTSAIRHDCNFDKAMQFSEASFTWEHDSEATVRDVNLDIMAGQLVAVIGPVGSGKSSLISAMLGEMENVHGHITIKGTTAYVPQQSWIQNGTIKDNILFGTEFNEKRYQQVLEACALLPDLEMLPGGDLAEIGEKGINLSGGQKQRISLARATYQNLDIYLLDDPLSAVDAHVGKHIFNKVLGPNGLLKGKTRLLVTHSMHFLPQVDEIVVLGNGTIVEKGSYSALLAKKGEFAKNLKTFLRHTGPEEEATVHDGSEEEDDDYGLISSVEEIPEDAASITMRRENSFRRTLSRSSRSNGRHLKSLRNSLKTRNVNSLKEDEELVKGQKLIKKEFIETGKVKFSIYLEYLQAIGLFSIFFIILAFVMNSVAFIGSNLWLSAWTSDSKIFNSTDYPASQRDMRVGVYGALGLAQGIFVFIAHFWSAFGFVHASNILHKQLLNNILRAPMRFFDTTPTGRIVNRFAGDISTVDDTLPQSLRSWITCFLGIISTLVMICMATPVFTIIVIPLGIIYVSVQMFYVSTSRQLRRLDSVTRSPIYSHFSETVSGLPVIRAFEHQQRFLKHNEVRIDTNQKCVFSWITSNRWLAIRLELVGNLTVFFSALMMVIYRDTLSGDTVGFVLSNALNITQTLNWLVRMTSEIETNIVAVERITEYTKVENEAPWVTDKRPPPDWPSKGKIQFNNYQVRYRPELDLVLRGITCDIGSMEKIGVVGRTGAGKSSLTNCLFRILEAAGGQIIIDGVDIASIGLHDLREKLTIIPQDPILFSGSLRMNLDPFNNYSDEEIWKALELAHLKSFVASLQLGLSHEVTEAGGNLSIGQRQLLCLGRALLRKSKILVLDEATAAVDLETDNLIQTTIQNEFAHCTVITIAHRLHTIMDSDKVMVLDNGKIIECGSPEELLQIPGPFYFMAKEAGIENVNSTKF

For the molecule `COc1ccc2c3c([nH]c2c1)C(C)=NCC3` [Harmaline], the “uptake ratio (UR)” value is < 2.00 and 1.35 at human MRP2; < 2.00 and 1.42 at human BCRP. Moreover, the F-values in data set [1] is 73.7% and 98.2% and 68.6% and 60.0%. Also, the apical-to-basolateral permeability (Papp A→B) at 120 min, 2 μM in the data set on PEPT1 was 20.9 ± 2.9 ×10⁻⁶ cm/s. For the same molecule, the Papp B→A at 120 min, 2 μM in the data set on PEPT1 was determined as 21.4 ± 1.96 ×10⁻⁶ cm/s. Also, the efflux ratio at 120 min, 2 μM in the data set with PEPT1 (read-out: ER) is 1.03. The efflux ratio in the data set on SGLT1 is 0.95; in the data set on OCTs/OCTNs it was 1.13; in the data set with MCTs it was 0.95. For the same molecule, the “efflux ratios (ER)” value in the data set with Caco-2 cell monolayers is less than 1.0.

These data come from article PMC5566973 (Frontiers in Pharmacology, 2017).
